Source: patent US20240423988A1, “Improvement of Tumor Immunogenicity by Means of Splicing-Controlling Compound” (Kyoto University, priority 2021, published 2024)

Columns and labels:
B2m-knockout MC38 clones = experiment: B2m KO MC38 clones and negative control clone intradermally inoculated into mice; assay type: in vivo
Procedure: [FIG. 3-2] Continuation of FIG. 3. G to J: The experimental schema (G), tumor volumes (H), flow cytometric images (I), as well as quantitative data (J) of tumor-infiltrating CD8^+ T cells on day 23 are shown (n=5 to 9/group). * represents p<0.05, and ** represents p<0.01. K: Tumor volumes of mice (n=5 to 6/group). Mice were intraperitoneally injected with 35 μg of αPD-L1 antibody or isotype control (isotype IgG) once weekly on days 9 and 16 for NC and days 11 and 18 for B2M KO #2. * represents p<0.05. All data are shown as the mean±SEM. Experiments were performed at least twice for A to F, or once for others. Statistical significance was determined using unpaired Student's t-test for (H), (J), and (K) and one-way ANOVA followed by Bonferroni's multiple comparisons test for (D) and (F).
Furthermore, whether neoantigen presentation in cancer cells is important for the antitumor effects of Compound 1 was investigated by establishing a CRISPR-Cas9-mediated knockout of B2m, an essential component of MHC class I, using MC38 cells. […] It was further confirmed that surface H-2K^b on these cells disappeared (FIGS. 3-1C and 3-1D) without affecting IFN-γ signaling (FIG. 3-1A) and the expression of PD-L1 on the cell surface (FIGS. 3-1E and 3-1F).
Then, these B2m KO MC38 clones were intradermally inoculated into immunodeficient mice, and the antitumor effects of Compound 1 were evaluated (FIG. 3-2G).

MC38 cells = experiment: IFN-γ signaling and expression of MHC class I components and PD-L1 in MC38 cells; assay type: cell-based, murine; settings: for decrease in PD-L1 expression on the cell surface / increase in H2-K^b expression: 72 hours
Source text: MHC class I expressed in cancer cells is critical for neoantigen presentation, which is indispensable for CD8^+ T cell-dependent immune surveillance and tumor killing. To investigate whether Compound 1 modulates the neoantigen presentation pathway, first, the effects of Compound 1 on IFN-γ signaling and the expression of MHC class I components, including […] (B2M) and H2-K^b in MC38 cells, were examined because CD8^+ T cell-secreted IFN-γ is a major inducer of MHC class I components. […] In contrast, any changes in the expression of PD-L1 were not detected in host dendritic cells or macrophages. […] However, these alterations were likely not the functional mechanisms through which Compound 1 exerts its antitumor effects (FIGS. 1-2O and 1-2P), as enhanced antitumor effects of Compound 1 were observed when co-administered with αPD-L1.

Clc1nc(NCc2ccco2)c2[nH]cnc2n1 [Compound 1]
antitumor effects (tumor growth) (B2m-knockout MC38 clones; B2m KO clones): completely abolished
number of CD8^+ T cells in tumors (B2m-knockout MC38 clones; B2m KO-derived tumors): no longer inducible
antitumor effects (tumor growth) (B2m-knockout MC38 clones; negative control clone): suppressed tumor growth
phosphorylation of STAT1 and STAT3 and expression of B2M protein (MC38 cells): no such effects
decrease in PD-L1 expression on the cell surface (MC38 cells; IFN-γ 0 ng/ml): 3.8%
increase in H2-K^b expression (MC38 cells; IFN-γ 0 ng/ml): 11.1%
decrease in PD-L1 expression on the cell surface (MC38 cells; IFN-γ 0.1 ng/ml): 3.2%
increase in H2-K^b expression (MC38 cells; IFN-γ 0.1 ng/ml): 12.4%
decrease in PD-L1 expression on the cell surface (MC38 cells; IFN-γ 1 ng/ml): 26.1%
